How the values were obtained:
MV4-11 cells = assay: MV4-11 cellular proliferative assay, Assay Format A (CellTiter-Glo, 120 h); assay type: cell-based; conditions: Homo sapiens, Assay format A, 120 h, read-out: IC50 (MV4-11 cellular proliferative assay)
Description: An MV4-11 proliferation assay was used to test the ability of compounds to reduce cell viability. MV4-11 cells (ATCC #CRL9591) were grown in IMDM medium (11510596, Gibco) supplemented with 10% fetal bovine serum (F7524, Gibco) and 1% Penicillin/Streptomycin (15140-122, Gibco) at 37° C. with 5% CO2. Cells were seeded in 384-well Elplasia plates (4447, Corning) at a density of 50 cells/well and treated with vehicle (DMSO) or compounds (10 serial semi-log dilutions, 30 μM as top concentration).
After 120 hours of treatment, cells were incubated for 10 min at RT with the CellTiter-Glo (CTG) reagent (G7571, Promega). Measurement of the luminescence signal was performed on a microplate reader (Ensight, PerkinElmer). CTG reagent measures the amount of ATP, which is directly proportional to the number of cells, to determine the number of viable cells in culture.
The data were analysed as follows:
[formula] • where x is the measured raw signal value of a well, (cr) is the median of the measured signal values for the Central Reference (DMSO) wells on a plate, (sr) is the median of the measured signal values for the Scale Reference (reference compound) wells on a plate.
[formula] • where the experimental set-up assumes the Hill parameters in certain ranges: S0~Central Reference (CR) from normalization (=Bottom), Sinf~Scale Reference (SR) from normalization (=Top), nHill ~1, AC50~within the measured concentration range.

MLLT1 = target: T1, MLLT1 (Homo sapiens, UniProt Q03111); assay: MLLT1 degradation assay in MV4-11 cells (JESS, 24 h); assay type: cell-based; set-up: endogenous in cells; host or cells: MV4-11 (ATCC CRL-9591); conditions: vs DMSO control
T1 sequence (Q03111 1-559): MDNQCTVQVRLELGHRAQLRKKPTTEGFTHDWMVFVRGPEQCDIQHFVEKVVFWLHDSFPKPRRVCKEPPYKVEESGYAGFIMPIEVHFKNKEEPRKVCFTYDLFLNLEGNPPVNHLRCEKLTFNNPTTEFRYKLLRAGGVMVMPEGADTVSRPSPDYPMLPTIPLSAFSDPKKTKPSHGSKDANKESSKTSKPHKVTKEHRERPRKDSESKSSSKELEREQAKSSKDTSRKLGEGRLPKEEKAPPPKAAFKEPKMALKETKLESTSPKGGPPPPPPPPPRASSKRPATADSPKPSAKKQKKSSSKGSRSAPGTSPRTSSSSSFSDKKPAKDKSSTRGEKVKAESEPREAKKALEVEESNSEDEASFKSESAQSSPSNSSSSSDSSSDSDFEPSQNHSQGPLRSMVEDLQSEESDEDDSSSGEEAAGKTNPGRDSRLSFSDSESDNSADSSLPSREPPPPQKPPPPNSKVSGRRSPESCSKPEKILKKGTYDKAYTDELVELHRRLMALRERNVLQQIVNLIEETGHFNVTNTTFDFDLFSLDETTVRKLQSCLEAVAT
How it was run: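 MV4-11 cells treated at 1000, 100 and 10 nM (0.1% DMSO) for 24 h at 37° C; lysates (4 ug protein) run on JESS capillary immunoassay with MLLT1 and GAPDH antibodies. Peak areas give % degradation versus DMSO, binned A (≥75%) to D (<25%).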

| Structure (SMILES) | IC50 (MV4-11 cells) [nM] | MLLT1% Degradation @ 0.01 μM (MLLT1) | MLLT1% Degradation @ 0.1 μM (MLLT1) | MLLT1% Degradation @ 1 μM (MLLT1) |
| --- | --- | --- | --- | --- |
| Cc1nn(CCCCCC#Cc2cccc3c2n(C)c(=O)n3C2CCC(=O)NC2=O)c2cc(C(=O)Nc3cc4[nH]c([C@H]5CCCN5C)cc4cn3)ccc12 (stereo partly drawn) [Example 11, 1-{7-[1-(2,6-dioxopiperidin-3-yl)-3-methyl-2-oxo-1,3-benzodiazol-4-yl]hept-6-yn-1-yl}-3-methyl-N-{2-[(2R)-1-methylpyrrolidin-2-yl]-1H-pyrrolo[3,2-c]pyridin-6-yl}indazole-6-carboxamide] | < 100 | B (Category B: 50%≤B<75% degradation) | B (Category B: 50%≤B<75% degradation) | B (Category B: 50%≤B<75% degradation) |
| Cc1nn(CCCCCCCCNc2cccc3c2CN(C2CCC(=O)NC2=O)C3=O)c2cc(C(=O)Nc3cc4[nH]c([C@H]5CCCN5C)cc4cn3)ccc12 (stereo partly drawn) [Example 16, 1-(8-{[2-(2,6-dioxopiperidin-3-yl)-1-oxo-3H-isoindol-4-yl]amino}octyl)-3-methyl-N-{2-[(2R)-1-methylpyrrolidin-2-yl]-1H-pyrrolo[3,2-c]pyridin-6-yl}indazole-6-carboxamide] | < 100 | A (Category A: A≥75% degradation) | A (Category A: A≥75% degradation) | A (Category A: A≥75% degradation) |
| Cc1nn(CCCCCN2CCN(c3cc4c(cc3F)C(=O)N(C3CCC(=O)NC3=O)C4=O)CC2)c2cc(C(=O)Nc3cc4[nH]c([C@H]5CCCN5C)cc4cn3)ccc12 (stereo partly drawn) [Example 23, 1-(5-(4-(2-(2,6-dioxopiperidin-3-yl)-6-fluoro-1,3-dioxoisoindolin-5-yl)piperazin-1-yl)pentyl)-3-methyl-N-(2-((R)-1-methylpyrrolidin-2-yl)-1H-pyrrolo[3,2-c]pyridin-6-yl)-1H-indazole-6-carboxamide] | < 100 | A (Category A: A≥75% degradation) | A (Category A: A≥75% degradation) | A (Category A: A≥75% degradation) |
| Cc1nn(CCCC2CCN(c3cccc4c3C(=O)N(C3CCC(=O)NC3=O)C4=O)CC2)c2cc(C(=O)Nc3cc4[nH]c([C@H]5CCCN5C)cc4cn3)ccc12 (stereo partly drawn) [Example 27, 1-(3-(1-(2-(2,6-dioxopiperidin-3-yl)-1,3-dioxoisoindolin-4-yl)piperidin-4-yl)propyl)-3-methyl-N-(2-((R)-1-methylpyrrolidin-2-yl)-1H-pyrrolo[3,2-c]pyridin-6-yl)-1H-indazole-6-carboxamide] | < 100 | A (Category A: A≥75% degradation) | A (Category A: A≥75% degradation) | A (Category A: A≥75% degradation) |
| Cc1nn(CCCCCC2CCN(c3cccc4c3C(=O)N(C3CCC(=O)NC3=O)C4=O)CC2)c2cc(C(=O)Nc3cc4[nH]c([C@H]5CCCN5C)cc4cn3)ccc12 (stereo partly drawn) [Example 29, 1-(5-(1-(2-(2,6-dioxopiperidin-3-yl)-1,3-dioxoisoindolin-4-yl)piperidin-4-yl)pentyl)-3-methyl-N-(2-((R)-1-methylpyrrolidin-2-yl)-1H-pyrrolo[3,2-c]pyridin-6-yl)-1H-indazole-6-carboxamide] | < 100 | B (Category B: 50%≤B<75% degradation) | A (Category A: A≥75% degradation) | A (Category A: A≥75% degradation) |

Further lines, results first:

| IC50 (MV4-11 cells) [nM] | MLLT1% Degradation @ 0.01 μM (MLLT1) | MLLT1% Degradation @ 0.1 μM (MLLT1) | MLLT1% Degradation @ 1 μM (MLLT1) | Structure (SMILES) |
| --- | --- | --- | --- | --- |
| < 100 | D (Category D: D<25% degradation) | A (Category A: A≥75% degradation) | A (Category A: A≥75% degradation) | Cc1nn(CCCCCCCCNc2ccc3c(c2)C(=O)N(C2CCC(=O)NC2=O)C3=O)c2cc(C(=O)Nc3cc4[nH]c([C@@H]5CCCN5C)cc4cn3)ccc12 (stereo partly drawn) [Example 15, 1-(8-{[2-(2,6-dioxopiperidin-3-yl)-1,3-dioxoisoindol-5-yl]amino}octyl)-3-methyl-N-{2-[(2S)-1-methylpyrrolidin-2-yl]-1H-pyrrolo[3,2-c]pyridin-6-yl}indazole-6-carboxamide] |
| < 100 | A (Category A: A≥75% degradation) | A (Category A: A≥75% degradation) | A (Category A: A≥75% degradation) | Cc1nn(CCCCCCCCNc2cccc3c2C(=O)N(C2CCC(=O)NC2=O)C3=O)c2cc(C(=O)Nc3cc4[nH]c([C@H]5CCCN5C)c(Cl)c4cn3)ccc12 (stereo partly drawn) [Example 18, N-(3-chloro-2-((R)-1-methylpyrrolidin-2-yl)-1H-pyrrolo[3,2-c]pyridin-6-yl)-1-(8-((2-(2,6-dioxopiperidin-3-yl)-1,3-dioxoisoindolin-4-yl)amino)octyl)-3-methyl-1H-indazole-6-carboxamide] |
| < 100 | A (Category A: A≥75% degradation) | A (Category A: A≥75% degradation) | A (Category A: A≥75% degradation) | Cc1nn(CCCCNc2cccc3c2C(=O)N(C2CCC(=O)NC2=O)C3=O)c2cc(C(=O)Nc3cc4[nH]c([C@H]5CCCN5C)cc4cn3)ccc12 (stereo partly drawn) [Example 21, 1-(4-((2-(2,6-dioxopiperidin-3-yl)-1,3-dioxoisoindolin-4-yl)amino)butyl)-3-methyl-N-(2-((R)-1-methylpyrrolidin-2-yl)-1H-pyrrolo[3,2-c]pyridin-6-yl)-1H-indazole-6-carboxamide] |
| < 100 | A (Category A: A≥75% degradation) | A (Category A: A≥75% degradation) | A (Category A: A≥75% degradation) | Cc1nn(CCCCCCNc2cccc3c2C(=O)N(C2CCC(=O)NC2=O)C3=O)c2cc(C(=O)Nc3cc4[nH]c([C@H]5CCCN5C)cc4cn3)ccc12 (stereo partly drawn) [Example 22, 1-(6-{[2-(2,6-dioxopiperidin-3-yl)-1,3-dioxoisoindol-4-yl]amino}hexyl)-3-methyl-N-{2-[(2R)-1-methylpyrrolidin-2-yl]-1H-pyrrolo[3,2-c]pyridin-6-yl}indazole-6-carboxamide] |
| < 100 |  | A (Category A: A≥75% degradation) | A (Category A: A≥75% degradation) | Cc1nn(CCOCCOCCNc2cccc3c2C(=O)N(C2CCC(=O)NC2=O)C3=O)c2cc(C(=O)Nc3cc4[nH]c([C@H]5CCCN5C)cc4cn3)ccc12 (stereo partly drawn) [Example 25, 1-(2-(2-(2-((2-(2,6-dioxopiperidin-3-yl)-1,3-dioxoisoindolin-4-yl)amino)ethoxy)ethoxy)ethyl)-3-methyl-N-(2-((R)-1-methylpyrrolidin-2-yl)-1H-pyrrolo[3,2-c]pyridin-6-yl)-1H-indazole-6-carboxamide] |
| < 100 |  | A (Category A: A≥75% degradation) | A (Category A: A≥75% degradation) | Cc1nn(CCOCCNc2cccc3c2C(=O)N(C2CCC(=O)NC2=O)C3=O)c2cc(C(=O)Nc3cc4[nH]c([C@H]5CCCN5C)cc4cn3)ccc12 (stereo partly drawn) [Example 26, 1-(2-(2-((2-(2,6-dioxopiperidin-3-yl)-1,3-dioxoisoindolin-4-yl)amino)ethoxy)ethyl)-3-methyl-N-(2-((R)-1-methylpyrrolidin-2-yl)-1H-pyrrolo[3,2-c]pyridin-6-yl)-1H-indazole-6-carboxamide] |

Source: patent publication US20260199484A1, “PROTAC DEGRADERS OF MLLT1 AND/OR MLLT3” (DARK BLUE THERAPEUTICS LTD, priority 2024, published 2026)
